EC50 and IC50 data for five compounds are collected here from patent US8987195B2 (priority 2012, dated 2015).

Read-outs that look alike come from different tables or passages of the source.

Experiment [1] has as its system HCV genotype 1b replicon. Put plainly: HCV replicon assay, genotype 1b replicon EC50. The format is cell-based, Hepatitis C virus. The conditions noted are these: Hepatitis C virus, HCV replicon, genotype 1b, read-out: EC50 [gt-1b]. An outline of the steps:
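Assay format: compound titration on stable replicon cells, no G418 during treatment, 24 to 48 hours. Lysates were assayed for replicon RNA (hybridization/protection or TaqMan) or luciferase; EC50 fitted to four parameters against DMSO.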

For experiment [2], the target named is HCV NS3/4A protease genotype 1b (Hepatitis C virus genotype 1b, UniProt P26663). Put plainly: HCV NS3/4A protease time-resolved fluorescence (TRF) assay, Ki against genotype 1b. The conditions noted are these: IC50 [gt-1b], NS3/4A protease TRF assay, genotype 1b enzyme 0.2 nM. The format is biochemical. Put shortly:
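Ki values come from IC50 fits corrected for substrate concentration and KM. The time-resolved fluorescence protease reaction used 25 nM peptide substrate, 2.5 h, room temperature, pH 7.5 HEPES buffer, after 30 min enzyme–inhibitor preincubation.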

Sequence of HCV NS3/4A protease genotype 1b (P26663 1027-1657): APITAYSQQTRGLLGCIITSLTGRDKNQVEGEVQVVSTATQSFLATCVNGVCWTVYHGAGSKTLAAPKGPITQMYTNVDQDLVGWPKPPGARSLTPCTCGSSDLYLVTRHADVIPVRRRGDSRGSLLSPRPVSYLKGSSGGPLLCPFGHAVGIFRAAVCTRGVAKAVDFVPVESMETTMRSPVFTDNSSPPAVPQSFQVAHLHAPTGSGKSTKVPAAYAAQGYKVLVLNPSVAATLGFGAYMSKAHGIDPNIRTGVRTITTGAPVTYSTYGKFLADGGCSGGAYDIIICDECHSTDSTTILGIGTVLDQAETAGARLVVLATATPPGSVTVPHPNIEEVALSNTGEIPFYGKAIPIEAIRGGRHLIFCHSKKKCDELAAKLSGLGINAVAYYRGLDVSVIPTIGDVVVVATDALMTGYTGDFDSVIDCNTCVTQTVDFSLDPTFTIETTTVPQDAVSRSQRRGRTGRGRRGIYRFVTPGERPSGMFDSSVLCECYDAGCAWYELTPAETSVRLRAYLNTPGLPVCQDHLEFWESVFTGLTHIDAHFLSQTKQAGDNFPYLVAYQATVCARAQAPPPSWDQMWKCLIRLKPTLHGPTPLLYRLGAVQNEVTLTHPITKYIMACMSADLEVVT
Sequence of HCV NS3/4A protease genotype 1b (P26663 1658-1711): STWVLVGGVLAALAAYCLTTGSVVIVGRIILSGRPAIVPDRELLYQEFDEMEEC

In general, EC50 refers to the concentration needed to bring the measured effect to its halfway point. Usually IC50 stands for the concentration at which inhibition is half-maximal. Consider `COCCOc1ccc2nc(C)c3c(c2c1)CC[C@]1(C[C@H]2C(=O)N[C@]4(C(=O)NS(=O)(=O)C5(C)CC5)C[C@H]4/C=C\CCCCC[C@H](NC(=O)OCC(C)(C)C)C(=O)N2C1)O3` [Example 410, 2,2-dimethylpropyl [(2R,6S,12Z,13aS,14aR,16aS)-9′-(2-methoxyethoxy)-5′-methyl-14a-{[(1-methylcyclopropyl)sulfonyl]carbamoyl}-5,16-dioxo-1,1′,2′,5,6,7,8,9,10,11,13a,14,14a,15,16,16a-hexadecahydrospiro[cyclopropa[e]pyrrolo[1,2-a][1,4]diazacyclopentadecine-2,3′-pyrano[2,3-c]quinolin]-6-yl]carbamate], for which, in experiment [1], the EC50 worked out at 3.1 nM. This compound also gave an IC50 in experiment [2] of 0.011 nM.
In the case of `COCCOc1ccc2nc(C)c3c(c2c1)CC[C@]1(C[C@H]2C(=O)N[C@]4(C(=O)NS(=O)(=O)C5(C)CC5)C[C@H]4/C=C\CCCCC[C@H](NC(=O)OCC(C)C)C(=O)N2C1)O3` [Example 411, 2-methylpropyl [(2R,6S,12Z,13aS,14aR,16aS)-9′-(2-methoxyethoxy)-5′-methyl-14a-{[(1-methylcyclopropyl)sulfonyl]carbamoyl}-5,16-dioxo-1,1′,2′,5,6,7,8,9,10,11,13a,14,14a,15,16,16a-hexadecahydrospiro[cyclopropa[e]pyrrolo[1,2-a][1,4]diazacyclopentadecine-2,3′-pyrano[2,3-c]quinolin]-6-yl]carbamate], in experiment [1], the EC50 came to 5.77 nM. Also, it took 0.064 nM to reach half-maximal inhibition in experiment [2] (IC50).
For `COc1ccc2nc(C3CC3)c3c(c2c1)CC[C@]1(C[C@H]2C(=O)N[C@]4(C(=O)NS(=O)(=O)C5(C)CC5)C[C@H]4/C=C\CCCCC[C@H](NC(=O)O[C@@H](C)C(C)C)C(=O)N2C1)O3` [Example 412, (2S)-3-methylbutan-2-yl [(2R,6S,12Z,13aS,14aR,16aS)-5′-cyclopropyl-9′-methoxy-14a-{[(1-methylcyclopropyl)sulfonyl]carbamoyl}-5,16-dioxo-1,1′,2′,5,6,7,8,9,10,11,13a,14,14a,15,16,16a-hexadecahydrospiro[cyclopropa[e]pyrrolo[1,2-a][1,4]diazacyclopentadecine-2,3′-pyrano[2,3-c]quinolin]-6-yl]carbamate], the EC50 in experiment [1] (K+ salt) amounted to 1.42 nM. In addition, the IC50 in experiment [2] (K+ salt) was 0.038 nM.
As to `COc1ccc2nc(C3CC3)c3c(c2c1)CC[C@]1(C[C@H]2C(=O)N[C@]4(C(=O)NS(=O)(=O)C5(C)CC5)C[C@H]4/C=C\CCCCC[C@H](NC(=O)O[C@H](C)C(C)C)C(=O)N2C1)O3` [Example 413, (2R)-3-methylbutan-2-yl [(2R,6S,12Z,13aS,14aR,16aS)-5′-cyclopropyl-9′-methoxy-14a-{[(1-methylcyclopropyl)sulfonyl]carbamoyl}-5,16-dioxo-1,1′,2′,5,6,7,8,9,10,11,13a,14,14a,15,16,16a-hexadecahydrospiro[cyclopropa[e]pyrrolo[1,2-a][1,4]diazacyclopentadecine-2,3′-pyrano[2,3-c]quinolin]-6-yl]carbamate], the EC50 in experiment [1] (K+ salt) turned out to be 2.53 nM. In addition, the IC50 in experiment [2] (K+ salt) came to 0.021 nM.
Turning to `Cc1nc2ccccc2c2c1O[C@]1(CC2)C[C@H]2C(=O)N[C@]3(C(=O)NS(=O)(=O)C4(C)CC4)C[C@H]3/C=C\CCCCC[C@H](Nc3cc(C(F)(F)F)ccn3)C(=O)N2C1` [Example 414, (2R,6S,12Z,13aS,14aR,16aS)-5′-methyl-N-[(1-methylcyclopropyl)sulfonyl]-5,16-dioxo-6-{[4-(trifluoromethyl)pyridin-2-yl]amino}-1,1′,2′,6,7,8,9,10,11,13a,14,15,16,16a-tetradecahydrospiro[cyclopropa[e]pyrrolo[1,2-a][1,4]diazacyclopentadecine-2,3′-pyrano[2,3-c]quinoline]-14a(5H)-carboxamide], the EC50 in experiment [1] stood at 5.16 nM. The compound also returned an IC50 in experiment [2] of 0.047 nM.
